Measured values taken from US20080269337A1, “Method for the enhancing biocidal activity” (priority 2007, published 2008).

Tests used:
[1] = test system: aqueous industrial systems; details: U.S. Pat. Nos. 5,607,597 and 5,736,056; cited from earlier work
[2] = test system: B. cereus ATCC14579; assay: B. cereus in synthetic medium, serial dilution and plating; type: cell-based; details: 20 mg/l bistridecylsulfosuccinate with 1 or 2 mg/l isothiazolinone
Description: The spore forming bacterium B. cereus is of particular concern because of its pathogenic properties. Most incidents of food poisoning attributed to the genus Bacillus are caused by B. cereus. B. cereus is a common concern in production of dairy products. There is particular concern about this organism in powered milk based products for infants. This is a concern not only to producers of these goods but also to the manufacturers of packaging and containers for such products. […] A culture of B. cereus ATCC14579 was treated with isothiazolinone alone and isothiazolinone with bistridecylsulfosuccinate One ml of bacteria from an overnight culture was used to innocculate shake flasks containing 50 mls of fresh synthetic medium. The synthetic medium (as described previously) was dosed with isothiazolinone at one or two mg/l concentration; or isothiazolinone in conjunction with 20 mg/l bistridecylsulfosuccinate. Cultures were maintained shaking at 37° C. then carried through serial dilution and plated at 3 and 5 hour time points.

[3] = test system: B. subtilus (ATCC23059); assay: B. subtilus in synthetic medium, serial dilution and plating; type: cell-based
Protocol: By definition a potentiator compound will not, by itself, kill or inhibit the bacterial population. The non-toxicity of bistridecylsulfosuccinate to B. subtilus is illustrated in Table 4. One ml of bacteria from an overnight culture was used to innocculate shake flasks containing 50 mls of fresh synthetic medium. The synthetic medium (as described previously) was augmented with increasing amounts of bistridecylsulfosuccinate. Serial dilution and plating was carried out to compare the efficacy of each treatment. The culture of B. subtilus was grown in the presence of 0, 5, 10, and 20 mg/l bistridecylsulfosuccinate (Btdss). Plating was carried out at 2.5 hours and 5 hours of incubation. […] The control had no treatment.

Q: For dinonylsulfosuccinates, which “Effect on efficacy of isothiazolinone” value [1] is on record?
A: enhance the efficacy of isothiazolinone

Q: With bistridecylsulfosuccinate [Btdss] as the molecule, how does the “Effect on efficacy of isothiazolinone against B. cereus” value [2] read?
A: greatly enhanced the efficacy of isothiazolinone

Q: What about the “B. subtilus count in synthetic medium” value ([3]; 5 mg/l Btdss alone, 2.4 Hour) of the same molecule?
A: 3.40 × 10^6

Q: What about the “B. subtilus count in synthetic medium” value ([3]; 5 mg/l Btdss alone, 5 Hour) of the same molecule?
A: 4.00 × 10^6

Q: And the “B. subtilus count in synthetic medium” value ([3]; 10 mg/l Btdss alone, 2.4 Hour)?
A: 2.8 × 10^6

Q: What about the “B. subtilus count in synthetic medium” value ([3]; 10 mg/l Btdss alone, 5 Hour) of the same molecule?
A: 3.90 × 10^7

Q: And the “B. subtilus count in synthetic medium” value ([3]; 20 mg/l Btdss alone, 2.4 Hour)?
A: 3.00 × 10^6

Q: And the “B. subtilus count in synthetic medium” value ([3]; 20 mg/l Btdss alone, 5 Hour)?
A: 3.6 × 10^7

Q: What about the “Growth of treated cultures relative to the untreated control” value ([3]; 5, 10, and 20 mg/l bistridecylsulfosuccinate alone) of the same molecule?
A: increased growth relative to the untreated control

Q: And the “Toxicity to B. subtilus” value ([3]; alone, at concentrations at least as high as 20 mg/l)?
A: non-toxic

Q: And the “Effect on efficacy of isothiazolinone” value [1]?
A: loss of efficacy

Q: Which “Effect on efficacy of isothiazolinone” value [1] does the source give for `CCCCC(CC)COC(=O)CC(C(=O)OCC(CC)CCCC)S(=O)(=O)O` (stereo not drawn) [dioctyl, dioctylsulfosuccinate] here?
A: enhance the efficacy of isothiazolinone
